Assay results as given in US7005526B2, “Thioether derivatives” (Hoffmann-La Roche Inc., priority 2004, dated 2006).

Key:
HER-2 = molecular target: T1, HER-2 (Homo sapiens, UniProt P04626); assay: Inhibition of HER-2 phosphorylation in Calu-3 tumor cell line; type: cell-based; conditions: compound concentration 1 μM; Calu-3 cells, 16 h incubation; pY 1248 in HER-2; relative to DMSO control; read-out: Percent inhibition of HER-2-phosphorylation
T1 construct: endogenous in cells; host or cells: Calu-3 (ATCC HTB-55) human non-small-cell lung cancer cells
T1 sequence (P04626 23-1255): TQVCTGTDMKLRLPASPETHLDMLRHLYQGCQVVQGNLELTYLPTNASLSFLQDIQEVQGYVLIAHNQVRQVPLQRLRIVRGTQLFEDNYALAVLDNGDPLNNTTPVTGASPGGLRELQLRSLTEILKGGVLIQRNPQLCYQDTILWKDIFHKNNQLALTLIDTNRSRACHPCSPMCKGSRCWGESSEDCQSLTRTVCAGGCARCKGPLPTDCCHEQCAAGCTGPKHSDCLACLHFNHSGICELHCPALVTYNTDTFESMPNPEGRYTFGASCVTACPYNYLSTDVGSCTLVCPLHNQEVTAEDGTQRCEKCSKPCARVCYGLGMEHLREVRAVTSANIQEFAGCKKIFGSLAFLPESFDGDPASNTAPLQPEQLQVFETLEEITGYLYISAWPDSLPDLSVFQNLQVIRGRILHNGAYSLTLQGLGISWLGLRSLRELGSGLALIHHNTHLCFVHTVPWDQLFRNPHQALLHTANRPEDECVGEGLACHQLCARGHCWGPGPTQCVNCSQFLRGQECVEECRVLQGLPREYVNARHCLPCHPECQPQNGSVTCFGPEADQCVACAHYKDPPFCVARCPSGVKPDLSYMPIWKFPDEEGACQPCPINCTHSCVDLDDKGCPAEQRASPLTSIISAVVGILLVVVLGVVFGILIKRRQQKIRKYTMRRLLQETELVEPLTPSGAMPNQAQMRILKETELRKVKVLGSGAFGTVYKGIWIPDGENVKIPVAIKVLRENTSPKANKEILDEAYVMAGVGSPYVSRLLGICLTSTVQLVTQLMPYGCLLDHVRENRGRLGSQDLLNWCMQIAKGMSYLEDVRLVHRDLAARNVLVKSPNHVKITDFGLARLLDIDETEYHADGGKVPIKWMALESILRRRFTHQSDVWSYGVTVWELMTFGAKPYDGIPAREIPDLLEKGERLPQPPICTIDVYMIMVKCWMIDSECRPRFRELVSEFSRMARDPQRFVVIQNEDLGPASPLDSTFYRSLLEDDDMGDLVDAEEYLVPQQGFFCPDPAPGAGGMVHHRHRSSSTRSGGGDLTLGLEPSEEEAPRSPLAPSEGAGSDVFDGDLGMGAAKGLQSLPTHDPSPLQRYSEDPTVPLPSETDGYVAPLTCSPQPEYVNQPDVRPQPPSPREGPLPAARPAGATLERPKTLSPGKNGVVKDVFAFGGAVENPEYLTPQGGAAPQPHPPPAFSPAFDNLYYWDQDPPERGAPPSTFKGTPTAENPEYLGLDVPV
Experimental: Inhibition of HER-2 Phosphorylation in Calu-3 Tumor Cell Line
2×10^5 Calu-3 (ATTC HTB-55) cells per well were plated in a 12-well plate. After 4 days cells were starved for 16 h in Dulbecco's Modified Eagle Medium (DMEM)/0.5% Fetal Calf Serum (FCS)/1% Glutamine. During this 16 h period cells were incubated with a solution of the test compound in dimethylsulfoxide (DMSO), so that the final concentration of the compound is 1 μM and the final volume of DMSO is 0.5%. Afterwards cells were lysed in lyses buffer containing 1% octyl phenol ethoxylate (Triton®X-100), 10% Glycerol, 1 mM Ethylene glycol-bis(2-aminoethylether)-N,N,N′,N′-tetraacetic acid (EGTA), 1.5 mM MgCl2, 150 mM NaCl, 50 mM 4-(2-hydroxyethyl)-1-piperazineethanesulfonic acid (HEPES) buffer pH 7.5, 1 mM Phenylmethylsulfonyl fluoride (PMSF), 10 μg/mL Aprotinin (a naturally occurring protein that is obtained and purified from cow's lungs) and […] Orthovanadate (Na3VO4). Cell lysates were analyzed on a Sodium Dodecyl Sulfate Polyacrylamide Gel Electrophoresis (SDS PAGE) and after transfer to a nitrocellulose membrane detected with an antibody specifically recognizing the pY 1248 in HER-2 (phosphorylated tyrosine residue 1248 of human epidermal receptor 2). After incubation with an anti rabbit antibody coupled to POD (Peroxidase available from Biorad, Munich, Germany) signals were detected by chemiluminescence (ECL, Amersham). Inhibition of HER-2 phosphorylation is calculated as percentage of the control, which is treated with DMSO only. This percentage was calculated according to the following formula: Inhibition in %=100−(Phosphorylated-HER2-Signal of Test Sample*100/Phosphorylated-HER2-Signal DMSO-control).

Row | inhibition at 1 µM (HER-2) | melting point | SMILES
1 | 65 to 80% |  | FC(F)(F)Oc1ccc(C=Cc2nc(COc3ccc(CSCCn4ccnn4)cc3)co2)cc1 [Example 1, 1-[2-(4-{2-[2-(4-Trifluoromethoxy-phenyl)-vinyl]-oxazol-4-ylmethoxy}-benzylsulfanyl)-ethyl]-1H-[1,2,3]triazole]
2 | > 80% |  | [O-][S+](CCn1ccnn1)Cc1ccc(OCc2coc(/C=C/c3ccc(OC(F)(F)F)cc3)n2)cc1 (centres unmarked) [Example 3, 1-[2-(4-{2-[2-(E)-(4-Trifluoromethoxy-phenyl)-vinyl]-oxazol-4-ylmethoxy}-phenylmethanesulfinyl)-ethyl]-1H-[1,2,3]triazole]
3 |  | 182 to 184 °C | [O-][S+](CCn1ccnn1)Cc1ccc(OCc2coc(C=Cc3ccc(SC(F)(F)F)cc3)n2)cc1 (centres unmarked) [Example 4, 1-[2-(4-{2-[2-(4-Trifluoromethylsulfanyl-phenyl)-vinyl]-oxazol-4-ylmethoxy}-phenylmethanesulfinyl)-ethyl]-1H-[1,2,3]triazole]
4 | 55 to 65% |  | FC(F)(F)c1ccc(C=Cc2nc(COc3ccc(CSCCn4ccnn4)cc3)co2)cc1 [Example 6, 1-[2-(4-{2-[2-(4-Trifluoromethyl-phenyl)-vinyl]-oxazol-4-ylmethoxy}-benzylsulfanyl)-ethyl]-1H-[1,2,3]triazole]
5 | > 80% |  | Fc1cc(C(F)(F)F)ccc1/C=C/c1nc(COc2ccc(CSCCn3ccnn3)cc2)co1 [Example 7, 1-[2-(4-{2-[2-(E)-(2-Fluoro-4-trifluoromethyl-phenyl)-vinyl]-oxazol-4-ylmethoxy}-benzylsulfanyl)-ethyl]-1H-[1,2,3]triazole]
6 | 65 to 80% |  | Fc1cc(Cl)ccc1/C=C/c1nc(COc2ccc(CSCCn3ccnn3)cc2)co1 [Example 9, 1-[2-(4-{2-[2-(E)-(4-Chloro-2-fluoro-phenyl)-vinyl]-oxazol-4-ylmethoxy}-benzylsulfanyl)-ethyl]-1H-[1,2,3]triazole]
7 | 55 to 65% |  | O=S(=O)(CCn1ccnn1)Cc1ccc(OCc2coc(/C=C/c3ccc(C(F)(F)F)cc3F)n2)cc1 [Example 10, 1-[2-(4-{2-[2-(E)-(2-Fluoro-4-trifluoromethyl-phenyl)-vinyl]-oxazol-4-ylmethoxy}-phenylmethanesulfonyl)-ethyl]-1H-[1,2,3]triazole]
8 | > 80% |  | [O-][S+](CCn1ccnn1)Cc1ccc(OCc2coc(/C=C/c3ccc(C(F)(F)F)cc3F)n2)cc1 (centres unmarked) [Example 11, 1-[2-(4-{2-[2-(E)-(2-Fluoro-4-trifluoromethyl-phenyl)-vinyl]-oxazol-4-ylmethoxy}-phenylmethanesulfinyl)-ethyl]-1H-[1,2,3]triazole]
